The test system of assay [1] is enzymatic 25-hydroxylation of vitamin D3 (microsomal enzyme system from rat liver). Briefly: in vitro 25-hydroxylation of vitamin D3 in rat liver microsomal enzyme system. The class given is biochemical. As for the experimental part:
Male rats, obtained as weanlings (Holtzman, Madison, WI) were maintained on a vitamin D-deficient 0.5% calcium and 0.3% phosphorus diet for 4-6 weeks prior to use for in vitro 25-hydroxylation assays. Animals were fasted 18 h to deplete glycogen stores prior to study.
The microsomes were prepared by the method of Madhok and DeLuca (Biochem. J. 184, 491 (1979)). Livers were homogenized in 3 vol of 0.25M sucrose using a Potter-Elvehjem homogenizer fitted with a Teflon pestle. All centrifugation steps were done using a type 30 rotor and a Beckman L5-50 ultracentrifuge (Beckman Instruments, Lincolnwood, Ill.). […]
The work-up of the incubation mixture involved separation of the organic phase, and evaporation of solvent; the residue was then taken up in hexane:CHCl3 :MeOH (90:10:5) and applied to a Sephadex LH-20 column (Pharmacia, Piscataway, N.J.) (0.7×12 cm). […] The radioactivity in the 25-OH-D3region was used as a measure of enzyme activity and the UV peak (254 nm) as a measure of recovery. Radioactivity was determined on a Packard Instruments 3255 liquid scintillation counter using a toluene counting solution with 0.4% p-bis-[2-(5-phenyloxazolyl)]-benzene and 0.03% dimethyl-1,4-bis-[2-(5-phenyloxazolyl)]-benzene. […] The enzyme activity was expressed as picomole product (25-OH-D3) produced per milligram protein per 2 hours.
(In general: Microsomes from liver hold many membrane-bound enzymes, among them those of drug oxidation.)

For assay [2], the system named is 25-hydroxylation of vitamin D3. The conditions noted are these: high doses required; cited from earlier work.

Data on 2 compounds can be found in patent publication US4481198A, “Vitamin D metabolism inhibitor” (Wisconsin Alumni Research Foundation, priority 1984, dated 1984).

Molecules are shown by their SMILES. Where “and” joins values, the source holds several entries; their conditions need not be identical. Identical values can stand only once. Entries after “also recorded” stand apart in the source; their conditions may differ.

Regarding `C=C1CC[C@H](O)C/C1=C/C=C1\CCC[C@]2(C)[C@@H]([C@H](C)CCC(=NO)C(C)C)CC[C@@H]12` [24-(NOH)D3, vitamin D3-24-oxime], the “25-OH-D3 Formation” value in assay [1] ([S] 200 nM vitamin D3, [I] 500 nM, inhibitor preincubated at 37° C. for 10 min, controls without inhibitor 0.46, 0.24, 0.36) is 0.09 pmol/2h/mg protein and 0.05 pmol/2h/mg protein. Moreover, in assay [1] (rat liver microsomal system, 500 nM inhibitor, 2.5 times the substrate concentration), the “inhibition of 25-OH-D3 formation from vitamin D3 (in words)” value is on record as “markedly suppressed; also recorded: dramatically suppresses”. With `CC(C)CCC[C@@H](C)[C@H]1CC[C@H]2/C(=C/C=C3/C[C@@H](O)CCC3CO)CCC[C@]12C` (stereo partly drawn) [19-hydroxy-10,19-dihydro-vitamin D3], the “inhibition of 25-hydroxylation of vitamin D3 by known antagonists (in words)” value in assay [2] was “partial inhibition”.
